Assays:
false cleavers = test: Test Example 5: herbicidal effect by foliage application, plastic box (Table 20, symbol Q); format: in vivo, false cleavers (Galium spurium); details: foliage application, three weeks after application
Method in brief: (§1)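 Foliar spray test: emulsion formulation diluted in water to a set application rate, sprayed onto 14-day-old plants raised in diluvial soil at 25° C to 30° C under glass. Both herbicidal effect and crop effect rated visually three weeks later.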

beet [1] = test: Test Example 4: effect on crop by soil treatment (Table 19, symbol f); format: in vivo; details: amount of applied herbicide 320 g/ha
Method in brief: (§2)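 Herbicidal effect was rated 3 weeks after treatment, using the scoring criteria of an earlier test. The compound, formulated as an emulsion and diluted in water to a set herbicide amount, had been sprayed uniformly on soil over freshly sown seeds. Growth took place in a greenhouse at 25° C. to 30° C.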

soybean [2] = test: Test Example 5: effect on crop by foliage application, plastic box (Table 20, symbol d); format: in vivo; details: 320 g/ha, three weeks after application
Method in brief: as §1

corn [3] = test: Test Example 5: effect on crop by foliage application, plastic box (Table 20, symbol c); format: in vivo; details: 320 g/ha, three weeks after application
Method in brief: as §1

wheat [4] = test: Test Example 4: effect on crop by soil treatment (Table 19, symbol e); format: in vivo; details: amount of applied herbicide 320 g/ha
Method in brief: as §2

directly sowed rice = test: Test Example 3: effect on crop by foliage application, Wagner pot (Table 18, symbol b); format: in vivo; details: amount of applied herbicide 320 g/ha
Method in brief: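 Plants were sown in alluvial soil held under 0.1–0.5 cm standing water and grown 14 days in a greenhouse at 25–30 °C. An emulsifiable formulation, water-diluted to the set dose, was then sprayed onto the foliage, and effects were scored three weeks later using previously defined criteria.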

corn [5] = test: Test Example 4: effect on crop by soil treatment (Table 19, symbol c); format: in vivo; details: amount of applied herbicide 320 g/ha
Method in brief: as §2

soybean [6] = test: Test Example 4: effect on crop by soil treatment (Table 19, symbol d); format: in vivo; details: amount of applied herbicide 320 g/ha
Method in brief: as §2

wheat [7] = test: Test Example 5: effect on crop by foliage application, plastic box (Table 20, symbol e); format: in vivo; details: 320 g/ha, three weeks after application
Method in brief: as §1

rapeseed [8] = test: Test Example 4: effect on crop by soil treatment (Table 19, symbol g); format: in vivo; details: amount of applied herbicide 320 g/ha
Method in brief: as §2

beet [9] = test: Test Example 5: effect on crop by foliage application, plastic box (Table 20, symbol f); format: in vivo; details: 320 g/ha, three weeks after application
Method in brief: as §1

transplanted rice = test: Test Example 1: effect on crop, application before weed generation under submerged conditions (Table 16, symbol a); format: in vivo; details: amount of applied herbicide 320 g/ha
Method in brief: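 Alluvial soil was flooded to 4 cm depth, weed seeds were sown mixed and 2.5-leaf rice seedlings were transplanted. On sowing day, the compound's emulsion, diluted in water to a set dose, was applied to the water surface. Plants grew at 25–30 °C and were scored 0–5 after three weeks.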

rapeseed [10] = test: Test Example 5: effect on crop by foliage application, plastic box (Table 20, symbol g); format: in vivo; details: 320 g/ha, three weeks after application
Method in brief: as §1

Row | Structure (SMILES) | Q: false cleavers, herbicidal effect grade (false cleavers; 320 g/ha) | further results
1 | CCOc1ccccc1-c1sc2cc(OC)ccc2c1-c1c(O)c(C)nn(CC)c1=O [3-085] | 4 (Herbicidal rate of 70% or more and less than 90%) | –
2 | CCOc1ccccc1-c1sc2cc(F)ccc2c1-c1c(O)c(C)nn(C)c1=O [3-006] | 5 (Herbicidal rate of 90% or more (almost completely withered)) | –
3 | CCOc1ccc(-c2sc3cc(OC)ccc3c2-c2c(O)c(C)nn(C)c2=O)cc1 [3-072] | 5 (Herbicidal rate of 90% or more (almost completely withered)) | –
4 | CCOc1ccccc1-c1sc2cc(C)ccc2c1-c1c(O)c(C)nn(C)c1=O [3-053] | 5 (Herbicidal rate of 90% or more (almost completely withered)) | –
5 | CCOc1cc(F)ccc1-c1sc2cc(F)ccc2c1-c1c(O)c(C)nn(C)c1=O [3-011] | 5 (Herbicidal rate of 90% or more (almost completely withered)) | –
6 | CCOc1cc(F)ccc1-c1sc2cc(C)ccc2c1-c1c(O)c(C)nn(C)c1=O [3-057] | 5 (Herbicidal rate of 90% or more (almost completely withered)) | –
7 | COc1ccccc1-c1sc2cc(OC3CCCC3)ccc2c1-c1c(O)c(C)nn(C)c1=O [3-109] | 1 (Herbicidal rate of 5% or more and less than 20%) | –
8 | CCCC(=O)Oc1c(C)nn(C)c(=O)c1-c1c(-c2ccc(OC)cc2)sc2cc(OCC)ccc12 [3-092] | 4 (Herbicidal rate of 70% or more and less than 90%) | –
9 | COc1ccccc1-c1sc2cc(F)ccc2c1-c1c(O)c(C)nn(C)c1=O [3-003] | 5 (Herbicidal rate of 90% or more (almost completely withered)) | –
10 | CCCC(=O)Oc1c(C)nn(C)c(=O)c1-c1c(-c2ccccc2)sc2cc(OC)ccc12 [3-062] | 4 (Herbicidal rate of 70% or more and less than 90%) | –
11 | CCCC(=O)Oc1c(C)nn(C)c(=O)c1-c1c(-c2ccc(OC)cc2)sc2cc(OC)ccc12 [3-069] | 4 (Herbicidal rate of 70% or more and less than 90%) | –
12 | Cc1ccc2oc(-c3ccc4c(c3)OCCO4)c(-c3c(O)c(C)nn(C)c3=O)c2c1 [9-012] | – | herbicidal effect on false cleavers (Q) (false cleavers; 320 g/ha): 3 (Herbicidal rate of 40% or more and less than 70%)
13 | CCCC(=O)Oc1c(C)nn(C)c(=O)c1-c1c(-c2ccc(F)cc2)sc2cc(F)ccc12 [3-002] | 5 (Herbicidal rate of 90% or more (almost completely withered)) | –
14 | CCOc1ccc2c(-c3c(O)c(C)nn(C)c3=O)c(-c3ccc(OC)cc3)sc2c1 [3-091] | 5 (Herbicidal rate of 90% or more (almost completely withered)) | –
15 | COc1cc(F)ccc1-c1sc2cc(F)ccc2c1-c1c(O)c(C)nn(C)c1=O [3-009] | 5 (Herbicidal rate of 90% or more (almost completely withered)) | –
16 | CCCC(=O)Oc1c(C)nn(C)c(=O)c1-c1c(-c2ccc3c(c2)OCCO3)sc2cc(F)ccc12 [3-014] | 4 (Herbicidal rate of 70% or more and less than 90%) | –
17 | CCCC(=O)Oc1c(C)nn(C)c(=O)c1-c1c(-c2ccc(OC)cc2)sc2cc(F)ccc12 [3-008] | 4 (Herbicidal rate of 70% or more and less than 90%) | –
18 | CCCC(=O)Oc1c(C)nn(C)c(=O)c1-c1c(-c2ccc(F)cc2OC)sc2cc(OC)ccc12 [3-077] | 3 (Herbicidal rate of 40% or more and less than 70%) | –
19 | CCCC(=O)Oc1c(C)nn(C)c(=O)c1-c1c(-c2ccccc2OC)sc2cc(OC)ccc12 [Compound No. 3-066, 5-(6-methoxy-2-(2-methoxyphenyl)benzo[b]thiophen-3-yl)-1,3-dimethyl-6-oxo-1,6-dihydropyridazin-4-yl=(n-butyrate)] | – | Q: false cleavers, herbicidal effect grade (false cleavers; 296 g/ha): 0 (Herbicidal rate of 5% or less (almost no effect))
20 | CCCC(=O)Oc1c(C)nn(C)c(=O)c1-c1c(-c2ccc(OC(C)C)cc2)sc2cc(F)ccc12 [3-020] | 4 (Herbicidal rate of 70% or more and less than 90%) | –
21 | CCCC(=O)Oc1c(C)nn(C)c(=O)c1-c1c(-c2ccc(F)cc2OCC)sc2cc(C)ccc12 [3-058] | 5 (Herbicidal rate of 90% or more (almost completely withered)) | –
22 | CCCC(=O)Oc1c(C)nn(C)c(=O)c1-c1c(-c2ccccc2OC)sc2cc(OCC)ccc12 [3-090] | – | Q: false cleavers, herbicidal effect grade (false cleavers; 310 g/ha): 5 (Herbicidal rate of 90% or more (almost completely withered))
23 | CCOc1ccc2c(-c3c(O)c(C)nn(C)c3=O)c(-c3ccc(F)cc3OCC)sc2c1 [3-095] | 5 (Herbicidal rate of 90% or more (almost completely withered)) | –
24 | Cc1nn(C)c(=O)c(-c2c(-c3ccc4c(c3)OCCO4)sc3cc(F)ccc23)c1O [3-013] | 5 (Herbicidal rate of 90% or more (almost completely withered)) | –
25 | CCCC(=O)Oc1c(C)nn(C)c(=O)c1-c1c(-c2ccc(F)cc2OCC)sc2cc(F)ccc12 [3-012] | 5 (Herbicidal rate of 90% or more (almost completely withered)) | –
26 | COc1ccc(-c2oc3ccc(F)cc3c2-c2c(O)c(C)nn(C)c2=O)cc1 [Compound No. 9-020, 4-(5-fluoro-2-(4-methoxyphenyl)benzofuran-3-yl)-5-hydroxy-2,6-dimethylpyridazin-3(2H)-one] | – | f: beet, effect on crop grade (beet [1]): 4 (Herbicidal rate of 70% or more and less than 90%); effect on crop soybean (d) (soybean [2]): 3 (Herbicidal rate of 40% or more and less than 70%); effect on crop corn (c) (corn [3]): 0 (Herbicidal rate of 5% or less (almost no effect)); e: wheat, effect on crop grade (wheat [4]): 2 (Herbicidal rate of 20% or more and less than 40%); Effect on crop b (directly sowed rice), foliage application (directly sowed rice): 0 (Herbicidal rate of 5% or less (almost no effect)); c: corn, effect on crop grade (corn [5]): 0 (Herbicidal rate of 5% or less (almost no effect)); melting point: 248 to 250 °C; d: soybean, effect on crop grade (soybean [6]): 0 (Herbicidal rate of 5% or less (almost no effect)); effect on crop wheat (e) (wheat [7]): 3 (Herbicidal rate of 40% or more and less than 70%); g: rapeseed, effect on crop grade (rapeseed [8]): 5 (Herbicidal rate of 90% or more (almost completely withered)); effect on crop beet (f) (beet [9]): 5 (Herbicidal rate of 90% or more (almost completely withered)); Effect on crop, a: transplanted rice (transplanted rice): 0 (Herbicidal rate of 5% or less (almost no effect)); effect on crop rapeseed (g) (rapeseed [10]): 5 (Herbicidal rate of 90% or more (almost completely withered))
27 | CCCC(=O)Oc1c(C)nn(C)c(=O)c1-c1c(-c2ccc(F)cc2OC)sc2cc(F)ccc12 [3-010] | 5 (Herbicidal rate of 90% or more (almost completely withered)) | –
28 | CCCC(=O)Oc1c(C)nn(C)c(=O)c1-c1c(-c2ccc3c(c2)OCCO3)oc2ccc(C)cc12 [9-013] | – | herbicidal effect on false cleavers (Q) (false cleavers; 320 g/ha): 0 (Herbicidal rate of 5% or less (almost no effect))
29 | COc1ccc2c(-c3c(O)c(C)nn(C)c3=O)c(-c3ccc(F)cc3OC)sc2c1 [3-076] | 4 (Herbicidal rate of 70% or more and less than 90%) | –
30 | Cc1nn(C)c(=O)c(-c2c(-c3ccc4c(c3)OCCO4)oc3ccccc23)c1O [8-002] | – | herbicidal effect on false cleavers (Q) (false cleavers; 320 g/ha): 0 (Herbicidal rate of 5% or less (almost no effect))

Reference: patent US20230085307A1, “PYRIDAZINONE COMPOUND AND HERBICIDE” (NISSAN CHEMICAL CORPORATION, priority 2019, published 2023)
